# Measured values published in article PMC7070167, “Cell‐permeable high‐affinity tracers for Gq proteins provide structural insights, reveal distinct binding kinetics and identify small molecule inhibitors” (British Journal of Pharmacology, 2020).
# Tests used:
# [1] = target: T1, Gq proteins (Homo sapiens, UniProt P50148); test: Competition binding at human platelet membrane preparations; conditions: for inhibition or modulation of [^3H]PSB‐15900 binding by G protein inhibitors: concentrations up to 100 μM, preincubation for 3 hr
# T1 construct: Native cell membrane preparations from rat brain cortex and human blood platelets; host or cells: human platelets (intact suspension or membrane preparation)
# T1 sequence (P50148 1-359): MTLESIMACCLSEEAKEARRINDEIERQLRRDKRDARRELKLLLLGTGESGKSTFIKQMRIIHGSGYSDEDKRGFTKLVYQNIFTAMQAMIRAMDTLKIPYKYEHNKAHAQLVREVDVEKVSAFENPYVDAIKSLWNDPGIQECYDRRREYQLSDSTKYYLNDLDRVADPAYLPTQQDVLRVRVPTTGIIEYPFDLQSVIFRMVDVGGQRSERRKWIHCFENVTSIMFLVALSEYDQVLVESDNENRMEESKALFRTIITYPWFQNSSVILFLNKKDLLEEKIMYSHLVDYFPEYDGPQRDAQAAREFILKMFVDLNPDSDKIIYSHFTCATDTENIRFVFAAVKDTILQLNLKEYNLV
# Description: Apheresis‐purified human thrombocyte‐plasma concentrates were centrifuged (1,000 g at 4°C for 10 min), and the supernatant was decanted and centrifuged again (at 48,400 g, 4°C, for 60 min). The supernatant was kept and used as platelet‐poor plasma for control experiments; the formed pellet was resuspended in buffer 1 (50‐mM Tris–HCl, 5‐mM EDTA, and 150‐mM NaCl) and centrifuged at 48,400 g, 4°C for 60 min. The supernatant was discarded again and the pellet was resuspended in buffer 2 (5‐mM Tris–HCl and 5‐mM EDTA). The cell suspension was homogenized using an Ultra‐Turrax® (IKA Laborechnik, Staufen, Germany) for 1 min at a speed level of 4, subsequently transferred into cryovials, and stored at −80°C before use (the preparation is stable for several months). For radioligand binding assays, 50 μg of protein per vial was used, determined by the method of Bradford (Bio‐Rad Protein Assay).
# The experiments were performed in 50‐mM Tris–HCl buffer, pH 7.4. The final assay volume of 200 μl contained 5 μl of test compound in DMSO, 50 μl of [^3H]PSB‐15900 or [^3H]PSB‐16254, respectively, in buffer, 5 nM of final concentration, and 100 μl of human platelet membrane preparation (50 μg of protein) or intact human platelets (7.5 × 10^6 cells/vial). Non‐specific binding was determined in the presence of 5‐μM FR. The incubation was started by the addition of membrane preparation and was performed at 37°C for 1 hr with gentle shaking. It was terminated by rapid vacuum filtration through GF/C glass‐fibre filters using a Brandel 24‐well harvester. The filters were rinsed three times with approximately 3 ml each of ice‐cold Tris–HCl buffer, 50 mM, pH 7.4 containing 0.1% Tween 20 and 0.1% BSA, to separate bound from free radioligand. The filters were punched out and transferred to scintillation vials. Luma Safe® scintillation cocktail (2.5 ml) was added, and after 6 hr of incubation, the samples were counted for 1 min each, using a liquid scintillation counter (counting efficiency 53%). Experiments in the presence of GTP were additionally performed after preincubation of the membrane preparation with GTP for 1 hr. pIC50 and pKi values were calculated using equations for one‐site competition as implemented in GraphPad Prism 6.01 (GraphPad Inc., La Jolla, CA, USA).
# [2] = tested on: Gq signalling via recombinantly expressed human P2Y1 receptor; test: Calcium mobilization assay, ADP-induced (P2Y1 receptor) in 1321N1 astrocytoma cells; assay type: cell-based
# Description: (§1) The functional activity of YM, FR, and Ebselen as Gq protein inhibitors was determined by assessing their ability to antagonize ADP‐induced calcium mobilization in 1321N1 astrocytoma cells stably transfected with the human P2Y1 receptor, which is a Gq‐coupled receptor. In addition, the compounds' inhibitory effects on Carbachol‐induced calcium mobilization were studied in the same cell line, which endogenously express the Gq‐coupled muscarinic M3 ACh receptor. The assays were performed according to a previously described procedure (Rafehi et al., 2017) using a NOVOstar microplate reader (BMG Labtech, Offenburg, Germany).
# [3] = tested on: Gq signalling (IP1 production) induced by ET‐1; test: IP1 assay in brown preadipocytes, ET-1; assay type: cell-based, mouse; conditions: Ebselen 50 μM pretreatment, ET‐1 10 nM
# Description: (§2) Intracellular concentrations of the second messenger IP1 in brown preadipocytes were quantified using the HTRF‐IP1 kit (Cisbio Bioassays) following the manufacturer's instructions. […] For ET‐1 experiments, non‐transduced preadipocytes were used. Cells were cultivated for 48 hr in GM (37°C, 5% CO2). For the assay, cells were trypsinized, and cell pellet was washed with PBS. Cell pellet was then resuspended in stimulation buffer containing 50‐mM LiCl and transferred to a 384‐well microtitre plate at a density of 100,000 cells per well in 7 μl of stimulation buffer. After 10 min of incubation, 3.5 μl of stimulation buffer containing inhibitors (50 μM of Ebselen, 1 μM of FR) were added for 1 hr followed by addition of 3.5 μl of stimulation buffer containing agonists (ET‐1, 10 nM; CNO, 10 μM) for 30 min; 3 μl of IP1‐d2 conjugate followed by 3 μl of europium cryptate‐labelled anti‐IP1 antibody dissolved in lysis buffer were added to the cells. After a further dark incubation of 1 hr at room temperature, time‐resolved fluorescence was measured at 620 and 665 nm with the EnSpire (Perkin Elmer) multimode plate reader.
# [4] = tested on: Gq signalling (IP1 production) via Dq; test: IP1 assay in brown preadipocytes expressing Gq-coupled designer GPCR (Dq), CNO; assay type: cell-based, mouse; conditions: Ebselen 50 μM
# Description: as §2
# [5] = tested on: Gq signalling via endogenously expressed M3 receptor; test: Calcium mobilization assay, carbachol-induced (M3 receptor) in 1321N1 astrocytoma cells; assay type: cell-based, human
# Description: as §1
# [6] = tested on: primary murine brown adipocytes; test: Differentiation of primary murine brown adipocytes (Oil Red O, UCP-1, PPARγ); assay type: cell-based, mouse; conditions: Ebselen 50 μM, 9 days
# Description: Ten‐ to 12‐week‐old pregnant wild‐type C57Bl6/J mice were purchased from Charles River and housed in pathogen‐free environment under a 12‐hr light/12‐hr dark cycle having free access to standard rodent diet and water. Brown adipose tissue (BAT)‐derived mesenchymal stem cells were isolated from interscapular BAT of newborn wild‐type mice and further cultured as previously described (Klepac et al., 2016). Specifically, 170,000 cells per well were seeded in growth medium (GM; DMEM supplemented with 10% FBS and 1% penicillin–streptomycin mixture from Sigma‐Aldrich) in a six‐well plate (Day −4); 48 hr later (Day −2), GM was replaced by differentiation medium (DM), which is GM supplemented with 20‐nM insulin and 1‐nM triiodothyronine. At Day 0, cells were treated for 48 hr with BAT induction medium (DM supplemented with 0.5‐mM isobutylmethylxanthine and 1‐μM dexamethasone). For the next 5 days, cells were treated with DM that was replenished every second day. The indicated treatments were added from Day −2 to Day +7 for 9 days to the media, endothelin‐1 (ET‐1; Tocris, 10 nM), or Ebselen (50 μM). Ebselen was added 3 hr prior to ET‐1 treatment. On Day +7, differentiation of cells into mature adipocytes was analysed using Oil Red O staining of lipid droplets. Mature brown adipocytes were washed with PBS and then fixed in 4% paraformaldehyde. […]
smiles,measurement,setting,value
N[C@@H](CS)C(=O)N1CCn2cc(-c3ccccc3)nc2[C@@H]1CC1CCCCC1 [BIM‐46174],inhibition or modulation of [^3H]PSB‐15900 binding by G protein inhibitors,[1],did not show any inhibition or modulation
N[C@@H](CSSC[C@H](N)C(=O)N1CCn2cc(-c3ccccc3)nc2[C@@H]1CC1CCCCC1)C(=O)N1CCn2cc(-c3ccccc3)nc2[C@@H]1CC1CCCCC1 [BIM‐46187],inhibition or modulation of [^3H]PSB‐15900 binding by G protein inhibitors,[1],did not show any inhibition or modulation
O=c1c2ccccc2[se]n1-c1ccccc1 [Ebselen],IC50,"[2]; Homo sapiens, versus ADP (EC80), P2Y1 receptor, 1321N1 astrocytoma cells, read-out: pIC50, inhibition of calcium mobilization (converted)",2.34 µM
same,extent of block of ADP‐induced calcium mobilization,[2]; recombinant 1321N1 astrocytoma cells,completely blocked
same,effect on ET‐1‐induced IP1 production,[3],attenuated
same,effect on CNO‐induced increase in IP1 levels,"[4]; CNO 10 μM, Gq‐DREADD expressing preadipocytes",significantly reduced
same,effect on basal IP1 levels,"[4]; absence of agonist (Ctrl), acute treatment",did not affect
same,Ki,"[1]; versus [^3H]PSB‐15900 (5 nM), human platelet membranes, 37°C, read-out: pKi (converted)",9.33 µM
same,extent of block of carbachol‐induced calcium mobilization,[5],completely blocked
same,IC50,"[5]; Homo sapiens, versus Carbachol (EC80), M3 receptor, read-out: pIC50, inhibition of calcium mobilization (converted)",4.37 µM
same,effect on differentiation of brown adipocytes,[6],enhanced
same,effect on ET‐1‐induced inhibition of brown adipogenesis,[6]; ET‐1 10 nM,rescued
Nc1nc2c(ncn2[C@@H]2O[C@H](COP(=O)(O)OP(=O)(O)OP(=O)(O)O)[C@@H](O)[C@H]2O)c(=O)[nH]1 [GTP],modulation of [^3H]PSB‐15900 binding by nucleotides,"[1]; 100 μM and 1 mM, human platelet membranes, 5 nM radioligand",not allosterically modulated
